A word on the IC50: it is the concentration at which inhibition is half-maximal.

The test system of test [1] is Aβ25-35 treated mice. The test is described as follows: combination studies in the Aβ25-35 model in mice, all parameters examined. The class given is in vivo, Male Swiss OF-1 mice. The settings on record: for minimal active dose: each drug, Aβ25-35 model in mice, ip; for efficacy of the drug alone in the combination studies with memantine: single drug, once 20 min before Aβ25-35.
Method: (a) Administration schedule, (b) Y-maze test; (c) passive avoidance response. Administration schedule: mice received ANAVEX2-73 (0.1, 0.3 mg/kg i.p.) and/or donepezil (0.25, 0.5 mg/kg i.p.) once 20 min before Aβ25-35 (9 nmol i.c.v.) at day 0. Animals were examined between days 7 and 9.
(a) Administration schedule, (b) Y-maze test; (c) passive avoidance response. Administration schedule: mice received ANAVEX2-73 (0.1, 0.3 mg/kg i.p.) and/or memantine (0.5, 1 mg/kg i.p.) once 20 min before Aβ25-35 (9 nmol i.c.v.) at day 0. Animals were examined between days 7 and 9.
The spontaneous alternation (YMT) and passive avoidance (PAT) responses are shown. […] The 100% protection level represents the Sc.Aβ/V group and the 0% level, the Aβ25-35/V group. Only the data with the lowest doses tested are shown.
(§1) Male Swiss OF-1 mice (Depré, St Doulchard, France), aged 7-9 weeks and weighing 32±2 g were used in this study. Animals were housed in plastic cages in groups. They had free access to food and water, except during behavioral experiments, and they were kept in a regulated environment (23±1° C., 40-60% humidity) under a 12 h light/dark cycle (light on at 07:00 am). Experiments were carried out between 09:00 am and 05:00 pm, in an experimental room within the animal facility. Mice were habituated 30 min before each experiment. Animal procedures were conducted in adherence with the EU Directive 86-609.
(§2) Donepezil (E2020) was from Eisai Tsukuba Research Laboratories (Tsukuba, Japan) and memantine was from Sigma-Aldrich (St Quentin-Fallavier, France). Drugs were solubilized in physiological saline solution and administered intraperitoneally (i.p.) in a volume of 100 μl per 20 g body weight. […] (Aβ25-35) and scrambled β25-35 (Sc.Aβ) peptides from Genepep (France) were solubilized in distilled water at 3 mg/ml and stored at 20° C. until use. Peptides were aged at 37° C. for 4 days and injected i.c.v. (3 μl per mouse).
(§3) Spatial working memory was examined through the measure of spontaneous alternation performance in the Y-maze. Animals were allowed to explore the Y-shaped maze during 8 min and the number of alternations (consecutive exploration of the 3 arms) and total number of arms entered was recorded.
(§4) Contextual long-term memory was measured using the step-through type passive avoidance test. During training, animals were placed in the white compartment of the two-compartment apparatus. The step-through latency to enter the dark compartment was recorded and mice received an electric shock (0.1 mA, 3 s). During the retention session, performed 24 h after training, the step-through latency to enter the dark compartement and escape latency, to re-exit, were recorded.

Test [2] concerns Aβ25-35 treated mice. The test can be described thus: spontaneous alternation in the Y-maze, Aβ25-35 treated mice. The test is classed as in vivo, Male Swiss OF-1 mice. The following applies: hydrochloride.
Method: Administration schedule: mice received ANAVEX2-73 (0.1-1 mg/kg i.p.) once-a-day between days −7 and −1 and Aβ25-35 (9 nmol i.c.v.) at day 0. Animals were examined between days 7 and 9.
Administration schedule: mice received Aβ25-35 (9 nmol i.c.v.) at day 0 and ANAVEX2-73 (0.1, 0.3 mg/kg i.p.) once-a-day between days 7 and 13. Animals were examined between days 14 and 16.
Administration schedule: mice received ANAVEX2-73 (0.1, 0.3 mg/kg i.p.) and/or donepezil (0.25, 0.5 mg/kg i.p.) once 20 min before Aβ25-35 (9 nmol i.c.v.) at day 0. Animals were examined between days 7 and 9.
Administration schedule: mice received ANAVEX2-73 (0.1, 0.3 mg/kg i.p.) and/or memantine (0.5, 1 mg/kg i.p.) once 20 min before Aβ25-35 (9 nmol i.c.v.) at day 0. Animals were examined between days 7 and 9.
as §1
Donepezil (E2020) was from Eisai Tsukuba Research Laboratories (Tsukuba, Japan) and memantine was from Sigma-Aldrich (St Quentin-Fallavier, France). Drugs were solubilized in physiological saline solution and administered intraperitoneally (i.p.) in a volume of 100 μl per 20 g body weight. The amyloid-β[25-35] (Aβ25-35) and scrambled β25-35 (Sc.Aβ) peptides from Genepep (France) were solubilized in distilled water at 3 mg/ml and stored at 20° C. until use. Peptides were aged at 37° C. for 4 days and injected i.c.v. (3 μl per mouse).
as §3
The subject of test [3] is muscarinic M1-M4 receptors. The settings on record: cited from earlier work.
Test [4] has as its system sodium channel site 2. The settings on record: screening profile; cited from earlier work.
Test [5] deals with σ2 sites (Homo sapiens, UniProt Q5BJF2). The following applies: reported binding analyses; cited from earlier work.
σ2 sites, sequence (Q5BJF2 whole entry): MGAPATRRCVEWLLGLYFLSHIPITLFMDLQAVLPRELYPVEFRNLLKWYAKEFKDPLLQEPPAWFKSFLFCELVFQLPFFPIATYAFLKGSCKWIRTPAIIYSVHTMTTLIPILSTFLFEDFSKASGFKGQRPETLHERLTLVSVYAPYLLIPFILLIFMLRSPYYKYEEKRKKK
Test [6] deals with Aβ25-35 treated mice. The test can be described thus: step-through passive avoidance, Aβ25-35 treated mice. The class given is in vivo, Male Swiss OF-1 mice. The settings on record: hydrochloride.
Method: as §1, §2, §4
For test [7], the system named is Aβ25-35 treated mice. The test is described as follows: lipid peroxidation in the hippocampus, Aβ25-35 treated mice. The test is classed as in vivo, Male Swiss OF-1 mice. The settings on record: hydrochloride.
Method: Administration schedule: mice received ANAVEX2-73 (0.1-1 mg/kg i.p.) once-a-day between days −7 and −1 and Aβ25-35 (9 nmol i.c.v.) at day 0. Animals were examined between days 7 and 9. Their brain dissected out and assessed for lipid peroxidation (LPO) at day 10.
Administration schedule: mice received Aβ25-35 (9 nmol i.c.v.) at day 0 and ANAVEX2-73 (0.1, 0.3 mg/kg i.p.) once-a-day between days 7 and 13. Animals were examined between days 14 and 16. Their brain dissected out and assessed for lipid peroxidation (LPO) at day 17.
as §1
Tetrahydro-N,N-dimethyl-2,2-diphenyl-3-furanmethanamine hydrochloride (ANAVEX2-73) was synthesized in the laboratory (Anavex Life Sciences, Greece). […] Drugs were solubilized in physiological saline solution and administered intraperitoneally (i.p.) in a volume of 100 μl per 20 g body weight. The amyloid-β[25-35] (Aβ25-35) and scrambled β25-35 (Sc.Aβ) peptides from Genepep (France) were solubilized in distilled water at 3 mg/ml and stored at 20° C. until use. Peptides were aged at 37° C. for 4 days and injected i.c.v. (3 μl per mouse).
Mouse hippocampus was homogenized in cold methanol, centrifuged at 1,000 g 5 min and supernatant collected. Homogenate was added to a solution of FeSO4 1 mM, H2SO4 0.25 M, xylenol orange 1 mM and incubated for 30 min at RT. Absorbance was measured at 580 nm (A5801), and 10 μl of cumene hydroperoxide (CHP) 1 mM was added and incubated for 30 min at RT. Absorbance was measured at 580 nm (A5802). Lipid peroxidation was determined as CHP equivalents: CHP eq.=A5801/A5802×[CHP (nmol)]×dilution, and expressed as percentage of the Sc.Aβ/V-treated group value.
Test [8] concerns Aβ25-35 treated mice. The settings on record: cited from earlier work.
The target of test [9] is σ1 (Homo sapiens, UniProt Q99720). The settings on record: believed to bind; cited from earlier work.
σ1, sequence (Q99720 whole entry): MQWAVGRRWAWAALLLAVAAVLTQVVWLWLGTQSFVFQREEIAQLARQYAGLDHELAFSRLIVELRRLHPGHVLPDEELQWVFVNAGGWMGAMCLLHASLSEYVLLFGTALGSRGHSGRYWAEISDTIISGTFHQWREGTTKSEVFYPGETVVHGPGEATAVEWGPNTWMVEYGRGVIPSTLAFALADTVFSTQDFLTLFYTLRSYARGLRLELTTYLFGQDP
The mark [10] stands for this setting: delayed administration: 0.3 mg/kg ip (FIG. 2: 0.1, 0.3) once a day day 7 to 13 after Aβ25-35, measured 14 days after Aβ25-35, 0.3 mg/kg.
Where [11] appears, read: early administration: 0.1, 0.3 mg/kg ip (FIG. 1: 0.1-1) once a day day -7 to -1 before Aβ25-35 (day 0), 7 days after Aβ25-35.
The mark [12] stands for this setting: administered before the Aβ25-35 peptide.
[13] abbreviates: mice one week after icv Aβ25-35 (Villard et al. 2011).

Entries after “also recorded” stand apart in the source; their conditions may differ.

Turning to `CN(C)CC1CCOC1(c1ccccc1)c1ccccc1.Cl` (stereo not shown) [ANAVEX2-73, Tetrahydro-N,N-dimethyl-2,2-diphenyl-3-furanmethanamine hydrochloride], in test [1], the minimal active dose is on record as 0.1 mg/kg and the “efficacy of the drug alone in the combination studies with memantine” value was “therapeutic efficacy”. For the same compound, the “Aβ25-35-induced memory deficits, spontaneous alternation in the Y maze” value in test [2] (setting [10]) is on record as “significant attenuations; also recorded: effective”. Also, the “Aβ25-35-induced memory deficits, spontaneous alternation in the Y maze” value in test [2] (setting [11]) is reported as “significantly prevented; also recorded: blocked”. In test [3] (believed to bind), the “affinity for muscarinic acetylcholine receptors” value was “low micromolar range”. For the same compound, the IC50 in [3] (screening profile, range over M1-M4) was 3.3 to 5.2 µM. In addition, the IC50 in test [4] is 5.1 µM. Further, the “affinity for σ2 sites” value in [5] was “no affinity”. Moreover, the “Aβ25-35-induced memory deficits, passive avoidance response” value in [6] (setting [10]) was “significant attenuations; also recorded: effective”. The “Aβ25-35-induced memory deficits, passive avoidance response” value in test [6] (setting [11]) is recorded as “significantly prevented; also recorded: blocked”. Besides, the “Aβ25-35-induced lipid peroxidation increase (toxicity)” value in test [7] (setting [10]) was “significant attenuations; also recorded: effective”. Also, in [7] (setting [11]), the “Aβ25-35-induced lipid peroxidation in the hippocampus (toxicity)” value is reported as “significantly prevented; also recorded: blocked”. In addition, in [8] (Lahmy et al. 2013), the “Aβ25-35-induced P-Akt decrease” value was “blocked” and the “Aβ25-35-induced P-GSK-3β increase” value is listed as “blocked”. In addition, in test [8] (setting [12]), the “dose preventing hippocampal cell loss” value was 0.3 to 1 mg/kg, the “dose preventing oxidative stress” value was 0.3 to 1 mg/kg and the “dose preventing the appearance of Aβ25-35-induced learning deficits” value was 0.03 mg/kg. In test [8] (in the dose-range tested), the “hyperphosphorylation of Tau on pathological epitopes (AT-100 clone)” value is reported as “attenuated” and the “hyperphosphorylation of Tau on physiological epitopes (AT-8 antibody clone)” value is listed as “attenuated”. In addition, in test [8] (setting [13]), the caspases induction result is “attenuating”; the cellular loss result is given as “attenuating”; the “learning and memory deficits” value is recorded as “attenuating”; the oxidative stress entry is on record as “attenuating”. For the same compound, the “Aβ25-35-induced endogenous Aβ1-42 seeding” value in [8] (mouse, in vivo) is recorded as “decreasing”. In test [8] (one week after icv injection of Aβ25-35 peptide), the “reversing the learning impairments” value is on record as “effective”. Moreover, the “affinity for sigma-1 receptors” value in test [9] is listed as “low micromolar range”.

Turning to `CC12CC3CC(C)(C1)CC(N)(C3)C2` [memantine, Memantine, reference compound], the “efficacy of the drug alone in the combination studies with memantine” value in [1] is recorded as “therapeutic efficacy”.

For the compound Donepezil [reference compound], the minimal active dose in test [1] is 0.25 mg/kg.

Values taken from patent publication US9750746B2 (priority 2013, dated 2017).
